Test results from US20100197650A1, “COMPOSITIONS AND METHODS OF TREATMENT COMPRISING CEFTAROLINE” (FOREST LABORATORIES HOLDINGS LTD., priority 2008, published 2010).
In brackets after ≈: the same amount, converted by molar mass. Where two headings read alike, the source gives them in different places.

Legend:
HA-MRSA = assay: Time-kill curves at ¼ and ½ MIC (Example 3); type: cell-based, Staphylococcus aureus; conditions: drug alone at ½ MIC, the 2 vancomycin-susceptible MRSA, followed by regrowth
Experimental: Four strains, including 1 hVISA and 1 VISA, characterized by population analysis profile and Macro Etest were selected for time-kill analysis.
Trypose soy agar (TSA; Difco, Detroit, Mich.) was used for colony counting.
Four randomly selected HA-MRSA isolates were evaluated in time-kill experiments, using a starting inoculum at ˜10^6 CFU/mL and antimicrobials at ¼ and ½ MIC. Regimens included ceftaroline, vancomycin and tobramycin alone or combination of tobramycin with ceftaroline or vancomycin. […] Additivity, antagonism and indifference were defined as <2 but >1 log10 kill, >1 log10 growth and ±1 log kill, respectively.
Differences between regimens were analyzed by T-test or ANOVA with Tukey's post hoc test. […] A P value <0.05 was considered significant.

Pseudomonas aeruginosa = assay: MIC, broth microdilution (Example 1); type: cell-based
How it was run: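 Media: Haemophilus Test Medium (H. influenzae); MH II broth + 2% lysed horse blood (S. pneumoniae); plain MH II broth (K. pneumoniae, P. aeruginosa). 2-fold serial dilutions in DMSO, 5% v/v drug in well. 35 °C, ~20 h. MIC read by eye at growth/no-growth.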

Streptococcus pyogenes = assay: MIC, broth microdilution (Example 1); type: cell-based; conditions: Streptococcus pyogenes, read-out: MIC
How it was run: (§1)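 CLSI broth microdilution with seven 2-fold dilutions per agent made in DMSO, the drug making up 5% of final well volume. H. influenzae was tested in Haemophilus Test Medium, S. pneumoniae in Mueller Hinton II broth with 2% lysed horse blood, and the others in Mueller Hinton II broth. Incubation was 35 °C for about 20 h, with visual reading.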

Enterococcus faecalis = assay: MIC, broth microdilution (Example 1); type: cell-based
How it was run: as §1

Acinetobacter baumannii = assay: MIC, broth microdilution (Example 1); type: cell-based
How it was run: as §1

[1] = test system: clinical Enterobacteriacae and P. aeruginosa isolates; assay: Susceptibility testing (Example 2), summary over species; type: cell-based; conditions: selected clinical isolates, except for 4 E. cloacae
ESBL-producing E. coli = assay: Susceptibility testing MIC/MBC, broth microdilution (Example 2); type: cell-based, Escherichia coli; conditions: for MBC / MIC: Escherichia coli
P. aeruginosa = assay: as above; type: cell-based, Pseudomonas aeruginosa; conditions: for MBC / MIC: Pseudomonas aeruginosa; for MBC: read-out: MBC; for MIC: read-out: MIC
[2] = test system: ESBL-producing Klebsiella pneumoniae; assay: as above; type: cell-based; conditions: for MBC / MIC: Klebsiella pneumoniae; for MBC: read-out: MBC; for MIC: read-out: MIC
[3] = P. aeruginosa (20) clinical isolates
[4] = K. pneumonia (10) clinical isolates

CCO/N=C(\C(=O)N[C@@H]1C(=O)N2C(C(=O)[O-])=C(Sc3nc(-c4cc[n+](C)cc4)cs3)CS[C@H]12)c1nsc(N)n1 [Ceftaroline]
kill at 4 hours (HA-MRSA): 1.5 log10 | MIC (Pseudomonas aeruginosa; P. aeruginosa 2555): 32 µg/mL | MIC (Pseudomonas aeruginosa; P. aeruginosa 2559): 16 µg/mL | MIC (Streptococcus pyogenes; S. pyogenes 0717): 0.008 µg/mL | MIC (Streptococcus pyogenes; S. pyogenes 0722): 0.008 µg/mL | MIC (Enterococcus faecalis; E. faecalis 0796 (VSE)): 4 µg/mL | MIC (Enterococcus faecalis; Enterococcus faecalis, E. faecalis 0795 (VSE), read-out: MIC): 8 µg/mL | MIC (Enterococcus faecalis; Enterococcus faecalis, E. faecalis 0796 (VSE), read-out: MIC): 2 µg/mL | MIC (Enterococcus faecalis; Enterococcus faecalis, VRE, E. faecalis 0847 (VRE), read-out: MIC): 2 µg/mL | MIC (Enterococcus faecalis; Enterococcus faecalis, VRE, E. faecalis 0849 (VRE), read-out: MIC): 4 µg/mL | MIC (Acinetobacter baumannii; A. baumannii 2602): 2 µg/mL | MIC (Acinetobacter baumannii; Acinetobacter baumannii, A. baumannii 2601, read-out: MIC): 2 µg/mL | MIC range [1]: 2 to 1024 µg/mL | MBC range (ESBL-producing E. coli; E. coli (10) clinical isolates): 4 to 1024 µg/mL | MIC range (ESBL-producing E. coli; E. coli (10) clinical isolates): 2 to 512 µg/mL | MBC (ESBL-producing E. coli; E. coli isolate no. 5401, read-out: MBC): 8 µg/mL (≈ 13.2 µM) | MIC (ESBL-producing E. coli; E. coli isolate no. 5401, read-out: MIC): 4 µg/mL (≈ 6.61 µM) | MBC (ESBL-producing E. coli; E. coli isolate no. 5411): 128 µg/mL (≈ 212 µM) | MIC (ESBL-producing E. coli; E. coli isolate no. 5411): 64 µg/mL (≈ 106 µM) | MBC range (P. aeruginosa; [3]): 16 to 256 µg/mL | MIC range (P. aeruginosa; [3]): 8 to 256 µg/mL | MBC (P. aeruginosa; P. aeruginosa isolate no. 796): 32 µg/mL (≈ 52.9 µM) | MIC (P. aeruginosa; P. aeruginosa isolate no. 796): 16 µg/mL (≈ 26.5 µM) | MBC (P. aeruginosa; P. aeruginosa isolate no. 956): 256 µg/mL (≈ 423 µM) | MIC (P. aeruginosa; P. aeruginosa isolate no. 956): 128 µg/mL (≈ 212 µM) | MBC (P. aeruginosa; P. aeruginosa isolate no. 1019): 64 µg/mL (≈ 106 µM) | MIC (P. aeruginosa; P. aeruginosa isolate no. 1019): 32 µg/mL (≈ 52.9 µM) | MBC (P. aeruginosa; P. aeruginosa isolate no. 1037): 16 µg/mL (≈ 26.5 µM) | MIC (P. aeruginosa; P. aeruginosa isolate no. 1037): 8 µg/mL (≈ 13.2 µM) | MBC range [2, 4]: 32 to 1024 µg/mL | MIC range [2, 4]: 8 to 1024 µg/mL | MBC ([2]; K. pneumonia isolate no. 5427): 16 µg/mL (≈ 26.5 µM) | MIC ([2]; K. pneumonia isolate no. 5427): 4 µg/mL (≈ 6.61 µM) | MBC ([2]; K. pneumonia isolate no. 5436): 1020 µg/mL (≈ 1690 µM) | MIC ([2]; K. pneumonia isolate no. 5436): 1020 µg/mL (≈ 1690 µM)
